Experiment [1] concerns inducible OA-NOS in OA-affected cartilage. Briefly: NO (nitrite) release from OA-affected cartilage in organ culture. It counts as cell-based, human. The conditions noted are these: for inhibition of NO production in OA-affected cartilage: 5-80 μg/mL, 24-72 h, ex vivo; for IC50: Homo sapiens, 72 h. The text has this:
We examined whether tetracyclines, e.g., doxycycline or minocycline, could block human OA-NOS activity under ex vivo conditions. Generally accepted pharmacologically relevant concentrations were selected for this study based on previous reports (Greenwald 1994, Yu et al. 1991, Cole et al. 1994, Mallya et al. 1994). OA-affected cartilage was obtained from patients with advanced OA undergoing knee replacement surgery and free of steroidal/nonsteroidal antiinflammatory drugs for at least 2 wk before surgery. OA-affected cartilage slices (FIGs. 1A-1C) were incubated in 0.1% BSA/endotoxin-free medium with 5-80 μg/mL of doxycycline or minocycline (Sigma Chemical Co., St. Louis, Mo.) for 24, 48 and 72 h in ex vivo conditions.
The assay of OA-iNOS in organ culture was basically carried out as described previously (Amin et al. 1995a). Briefly, the OA-affected cartilage was cultured in the presence or absence (Control) of doxycycline and minocycline at 5-80 μg/mL, for 24-72 h in an incubator (37° C.). Activity of NOS was monitored at different time intervals by estimating the amount of the stable end-product, nitrite, in the medium by a modified Griess reaction (Gilliam et al. 1993) using an ELISA reader. The amount of NO spontaneously released (as measured by nitrite accumulation) at 0, 24, 48 and 72 h was 0, 4.8±0.38, 16.4±0.7, and 17.8±0.9 μM, respectively. Data are expressed as μM nitrite released±(SD), n=3-4. The statistics were derived using unpaired Student's t test. FIGS. 1A-1C show a time series of graphs (1A=24 h; 1B=48 h; and IC=72 h) summarizing data representing one of three identical experiments with samples from different patients.

The test system of another experiment is iNOS mRNA. The experiment can be described thus: iNOS mRNA expression in LPS-stimulated RAW 264.7 cells (RT-PCR). It counts as cell-based, murine. The conditions noted are these: 20-40 μg/mL. As for the experimental part:
Doxycycline and minocycline may suppress iNOS before the synthesis of the enzyme, leading to inhibition of iNOS protein expression, specific activity and accumulation of nitrite. […] Therefore, to determine the level at which tetracycline inhibited iNOS protein expression, RAW 264.7 cells treated with LPS in the presence or absence of doxycycline and minocycline were analyzed for iNOS mRNA by semi-quantitative RT-PCR.
The presence of iNOS and β-actin mRNA in cells was analyzed by reverse transcription (RT) of total RNA followed by PCR amplification of the cDNA. The sense and antisense oligonucleotides for iNOS were, respectively, 5'-ACGGAGAAGCTTAGATCTGGAGCAGAAGTG-3'(142 to 171) (SEQ ID NO:1) and 5'-CTGCAGGTTGGACCACTGGATCCTGCCGAT-3' (767 to 796) (SEQ ID NO:2). The sense and antisense primers for β-actin were 5'-TCCTTCGTTGCCGGTCCACA-3' (44 to 63) (SEQ ID NO:3) and 5'-CGTCTCCGGAGTCCATCACA-3' (534 to 552) (SEQ ID NO:4), respectively. The predicted PCR product of the iNOS cDNA was 654 bp; that of the β-actin cDNA was 508 bp. The polymerase chain reaction was carried out in an automated DNA thermal cycle (Perkin-Elmer Cetus, Norwalk, Conn.). The total RNA was extracted using TRI-Reagent (MRC Inc., Cincinnati, Ohio). The cDNA was prepared from equal amounts (1-5 μg) of total RNA using a SuperScript™ RNase H Reverse Transcriptase (Gibco BRL, Gaithersburg, Md.). An equal amount of the cDNA was used to amplify the mRNA by PCR. PCR amplification was performed in 50 μL solution containing 1.5 mM MgCl2, 500 ng iNOS primer, 100 ng β-actin primer, 0.2 mM of each dNTP, 2.5 units of Taq DNA polymerase (Gibco). The cycle conditions for amplification of cDNA were 1 min at 94° C., 1-2 min at 55° C. and 3 min at 72° C. for 30 cycles for both iNOS and β-actin. The PCR product was analyzed by electrophoresis on 1.0% agarose gels.
RT-PCR analysis of iNOS and βactin mRNA expression in RAW 264.7 cells was carried out after stimulation with LPS±doxycycline or minocycline. […] Equal amounts of RNA were analyzed for iNOS and β-actin expression as described above.

For a further experiment, the system named is β-actin. The experiment can be described thus: β-actin levels in LPS-activated RAW 264.7 cells (Western blot). It counts as cell-based, murine. The conditions noted are these: 20-80 μg/mL. On the procedure: RAW 264.7 cells were activated with 100 ng/mL LPS for 16-18 h, with and without doxycycline or minocycline (20-80 μg/mL) or with hydrocortisone (10 μM). Cell-free extracts were prepared as described above. The extract s were analyzed for 133 kD iNOS by Western blotting, using specific anti-iNOS antibodies.
Equal amounts of protein (25-50 μg) estimated by BCA reagent (Pierce, Rockford, Ill.) were loaded onto SDS-PAGE gels and stained to verify the concentrations of various protein fractions by examining the intensities of the protein bands on the gels. Western blot analysis was carried out from the same cell extracts. The Western-blotted membrane was probed with a specific anti-murine iNOS monoclonal antibody (Transduction Laboratories, Lexington, Ky.), as specified by the supplier. The same blot was also probed with an anti-actin antibody generously provided by Dr. James L. Lessard (Children's Hospital Medical Center, Cincinnati, Ohio). The blots were developed using the ECL Western blot system (Amersham, Arlington Heights, Ill.). Quantitation of the bands was performed using a densitometer from Molecular Dynamics (Sunnyvale, Calif.). FIG. 5 is representative.
In general terms: Immunoblotting shows a protein as a band on a membrane.

SMILES strings stand for the structures. Converted amounts (≈) assume the structure as drawn.

This note sets out measurements from patent US5789395A, “Method of using tetracycline compounds for inhibition of endogenous nitric oxide production” (The Research Foundation of State University of New York, priority 1996, dated 1998).

By IC50 is commonly meant the concentration needed to halve the response being measured. The low end stands for greater potency in that assay, the high end for weaker potency in that assay.

Regarding `C[C@H]1c2cccc(O)c2C(O)=C2C(=O)[C@]3(O)C(O)=C(C(N)=O)C(=O)[C@@H](N(C)C)[C@@H]3[C@@H](O)[C@@H]21` [doxycycline], in experiment [1], the “inhibition of NO production in OA-affected cartilage” value is reported as “significantly inhibited NO production in OA-affected cartilage in a dose-dependent manner” and the IC50 worked out at 32 µg/mL (≈ 72 µM). Also, the “decrease of iNOS mRNA expression” value in the experiment with iNOS mRNA is given as above 50%. Further, in the experiment on β-actin, the “effect on the levels of β-actin synthesis” value was “no significant effect”.
In the case of `CN(C)c1ccc(O)c2c1C[C@H]1C[C@H]3[C@H](N(C)C)C(O)=C(C(N)=O)C(=O)[C@@]3(O)C(O)=C1C2=O` [minocycline], in experiment [1], the “inhibition of NO production in OA-affected cartilage” value was “significantly inhibited NO production in OA-affected cartilage in a dose-dependent manner” and the IC50 is 54 µg/mL (≈ 118 µM). Moreover, the “decrease of iNOS mRNA expression” value in the experiment on iNOS mRNA is listed as above 50%. Moreover, the “effect on the levels of β-actin synthesis” value with β-actin is “no significant effect”.
